From US4314028A, “Fermentation process for producing tallysomycin compounds” (priority 1980, dated 1982)
Where two headings read alike, the source gives them in different places.

Legend:
[1] = test system: Mycobacterium smegmatis strain M6-3; test: Relative antibacterial potency, paper-disc agar diffusion method; format: cell-based; conditions: relative to tallysomycin A standard=1000 mcg/mg
Procedure: The relative antibacterial potencies (tallysomycin A standard=1000 mcg/mg) of the tallysomycin derivatives were determined by the paper-disc agar diffusion method using Mycobacterium smegmatis strain M6-3 as the assay organism.

[2] = test system: lysogenic bacterium E. coli W1709 (λ); test: Prophage induction of lysogenic bacterium (ILB activity); format: cell-based; conditions: t/c ratio of plaque counts greater than 3.0
Method in brief: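 Plaques counted on agar plates containing test compound and on control plates, following Lein et al. A test/control plaque ratio above 3.0 counted as significant. Value given as the minimum inducible concentration.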

Lewis lung carcinoma = test: Antitumor activity in mice, Lewis lung carcinoma; format: in vivo, BDF1 mice; conditions: for Antitumor activity Lewis lung (ED125): once daily 11 days, dose giving T/C survival of 125%; for Antitumor activity Lewis lung (ED125) / Antitumor therapeutic index Lewis Lung: copper-chelated form unless otherwise stated; for Antitumor therapeutic index Lewis Lung: single dose LD50/ED125
From the text: The antitumor activity of the tallysomycin derivatives was examined in four experimental tumor systems in mice. Lymphocytic leukemia P388 and Lewis lung carcinoma were implanted intraperitoneally into BDF1 mice of either sex at an inoculum size of 3×10^5 and 5×10^5 cells per mouse, respectively. Sarcoma 180 ascites tumor was inoculated intraperitoneally into male dd-strain mice with […] per mouse. Melanotic melanoma B16 was implanted subcutaneously into BDF1 mice with 5×10^5 cells per mouse. Twenty-four hours after the implantation of tumor cells, graded doses of test compounds were administered to mice intraperitoneally in an injection volume of 0.2 ml. per 10 grams of body weight. Test compounds were given once daily for 9 days (qd 1→9 schedule) except for the mice inoculated with Lewis lung carcinoma which were treated for 11 days (qd 1→11). Death or survival of the treated and non-treated (control) animals was recorded daily during the observation period of 45 days after the implantation of tumor cells, and the median survival time was calculated for each of the test (T) and control (C) groups. […] The actual dose giving a T/C of 125% was estimated by linear regression analysis and defined as the effective dose 125 or ED125. The effective dose 150 (ED150) was employed for the evaluation of antitumor effect against Sarcoma 180. In the B16 melanoma experiment the tumor size was measured on day 16 after tumor inoculation, and the dose giving 50% inhibition of tumor growth (ID50) was calculated from regression lines.
The antitumor therapeutic index was calculated for each derivative from the ratio of toxicity and antitumor activity.

Mycobacterium 607 = test: MIC, two-fold agar dilution method; format: cell-based; conditions: nutrient agar
Method in brief: (§1)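 Two-fold agar dilution; nutrient agar for bacteria, Sabouraud agar for A. fumigatus. MIC = lowest inhibitory concentration.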

[3] = test system: Bacillus subtilis PCI 219; test: MIC, two-fold agar dilution method; format: cell-based; conditions: nutrient agar
Method in brief: (§2)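 Compounds are diluted two-fold through agar plates: Sabouraud medium for the fungus, nutrient medium for the bacterial strains, including the acid-fast Mycobacterium 607. Organisms are then applied and the minimum inhibitory concentration is recorded.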

Proteus mirabilis A9554 = test: MIC, two-fold agar dilution method; format: cell-based; conditions: nutrient agar
Method in brief: as §2

[4] = test system: Candida albicans IAM 4888; test: MIC, two-fold agar dilution method; format: cell-based; conditions: Sabouraud agar
Method in brief: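 Agar dilution (2-fold series) on nutrient agar (bacteria) or Sabouraud agar (fungi).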

Sarcina lutea PCI1001 = test: MIC, two-fold agar dilution method; format: cell-based; conditions: nutrient agar
Method in brief: as §1

Escherichia coli NIHJ = test: MIC, two-fold agar dilution method; format: cell-based; conditions: nutrient agar
Method in brief: as §2

[5] = test system: Aspergillus fumigatus IAM 2593; test: MIC, two-fold agar dilution method; format: cell-based; conditions: Sabouraud agar
Method in brief: as §1

[6] = test system: Staphylococcus aureus Smith; test: MIC, two-fold agar dilution method; format: cell-based; conditions: nutrient agar
Method in brief: as §1

[7] = test system: Lymphocytic leukemia P388; test: animal or person; format: in vivo, BDF1 mice; conditions: for Antitumor activity P388 (ED125): ip, once daily 9 days, dose giving T/C survival of 125%; for Antitumor activity P388 (ED125) / Antitumor therapeutic index P388: copper-chelated form unless otherwise stated; for Antitumor therapeutic index P388: single dose LD50/ED125
Method in brief: (§3)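 P388 (3×10^5 cells) and Lewis lung (5×10^5) i.p. in BDF1 mice, B16 (5×10^5) s.c. in BDF1, Sarcoma 180 ([…]) i.p. in male dd mice. ED125 (Sarcoma 180 ED150) from median-survival T/C, 45 days; B16 ID50 from day-16 tumor size.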

[8] = Subacute toxicity, multiple dose LD50; format: in vivo, dd mice; conditions: ip, once daily 9 days, 30 days observation; copper-chelated form unless otherwise stated
Procedure: (§4) Graded doses of test compounds were administered intraperitoneally to groups of dd mice. The injection was given one time only or once daily for 9 consecutive days. Death or survival of the animals was recorded for 30 days after the last dose of test compound to calculate the single or multiple median lethal dose (LD50).

[9] = Acute toxicity, single dose LD50; format: in vivo, dd mice; conditions: ip, 30 days observation, copper-chelated form unless otherwise stated
Procedure: as §4

Sarcoma 180 = test: animal or person; format: in vivo, dd-strain mice; conditions: for Antitumor activity S180 (ED150) / ED (T/C 150%): ip; for Antitumor therapeutic index S180: single dose LD50/ED150; for ED (T/C 150%): Mus musculus, 216 h, read-out: Antitumor activity S180 (ED150)
Method in brief: as §3

Melanotic melanoma B16 = test: Antitumor activity in mice, melanotic melanoma B16; format: in vivo, BDF1 mice; conditions: copper-chelated form unless otherwise stated; for Antitumor activity B16 (ID50): ip, once daily 9 days, 50% inhibition of tumor growth, day 16, 23040 min; for Antitumor therapeutic index B16: single dose LD50/ID50
Method in brief: as §3

[10] = once daily 9 days, effective dose 150, survival, copper-chelated form unless otherwise stated
[11] = copper-chelated form unless otherwise stated

Compound | Antibacterial potency [1] | ILB activity (minimum inducible concentration) [2] [µg/mL] | Antitumor activity Lewis lung (ED125) (Lewis lung carcinoma; ip) [mg/kg/day] | Antitumor therapeutic index Lewis Lung (Lewis lung carcinoma) | minimum inhibitory concentration (MIC) (Mycobacterium 607) | minimum inhibitory concentration (MIC) [3] | minimum inhibitory concentration (MIC) (Proteus mirabilis A9554) | minimum inhibitory concentration (MIC) [4] | minimum inhibitory concentration (MIC) (Sarcina lutea PCI1001) | minimum inhibitory concentration (MIC) (Escherichia coli NIHJ) | minimum inhibitory concentration (MIC) [5] | minimum inhibitory concentration (MIC) [6] | Antitumor activity P388 (ED125) [7] [mg/kg/day] | Antitumor therapeutic index P388 [7] | LD50 multiple dose (qd 1 → 9) [8] [mg/kg/day] | LD50 single dose [9] [mg/kg/day] | Antitumor activity S180 (ED150) (Sarcoma 180; [10]) [mg/kg/day] | Antitumor therapeutic index S180 (Sarcoma 180; [11]) | Antitumor activity B16 (ID50) (Melanotic melanoma B16) [mg/kg/day] | Antitumor therapeutic index B16 (Melanotic melanoma B16) | other results
Cc1c(N)nc(C(CC(N)=O)NCC(N)C(N)=O)nc1C(=O)NC(C(=O)NC(C)C(O)CC(=O)NC(C(=O)NC(OC1OC(C)C(N)C(O)C1O)C(O)c1nc(-c2nc(C(=O)NCCNCC(C)O)cs2)cs1)C(C)O)C(OC1OC(CO)C(O)C(O)C1OC1OC(CO)C(O)C(OC(N)=O)C1O)c1c[nH]cn1 (stereo not shown) [Tallysomycin S5b] | 500 μ/mg | 0.08 | 0.38 | 121 | 0.2 | 0.025 | 3.1 | 25 | 12.5 | 0.4 | 0.4 | 6.3 | 0.66 | 70 | 4.0 | 46 | 0.10 | 460 | 0.31 | 148 | –
Cc1c(N)nc(C(CC(N)=O)NCC(N)C(N)=O)nc1C(=O)NC(C(=O)NC(C)C(O)CC(=O)NC(C(=O)NC(OC1OC(C)C(N)C(O)C1O)C(O)c1nc(-c2nc(C(=O)NCCCNC(C)c3ccccc3)cs2)cs1)C(C)O)C(OC1OC(CO)C(O)C(O)C1OC1OC(CO)C(O)C(OC(N)=O)C1O)c1c[nH]cn1 (stereo not shown) [Tallysomycin S14b] | 1,090 μ/mg | 0.04 | 0.29 | – | 0.2 | 0.4 | 25 | > 100 | 3.1 | 0.4 | 25 | 3.1 | 3.0 | – | 16 | – | 0.08 | – | 0.43 | – | –
Cc1c(N)nc(C(CC(N)=O)NCC(N)C(N)=O)nc1C(=O)NC(C(=O)NC(C)C(O)CC(=O)NC(C(=O)NC(OC1OC(C)C(N)C(O)C1O)C(O)c1nc(-c2nc(C(=O)NCCCCN)cs2)cs1)C(C)O)C(OC1OC(CO)C(O)C(O)C1OC1OC(CO)C(O)C(OC(N)=O)C1O)c1c[nH]cn1 (stereo not shown) [Tallysomycin S10b (Cu-free)] | – | – | – | – | – | – | – | – | – | – | – | – | – | – | 4.0 | 42 | – | – | – | – | ED (T/C 125%) (Lewis lung carcinoma; Mus musculus, Lewis lung carcinoma, ip, 264 h, read-out: Antitumor activity Lewis lung (ED125)): 0.21 mg/kg/day; ED (T/C 125%) ([7]; Mus musculus, P388, ip, 216 h, read-out: Antitumor activity P388 (ED125)): 0.47 mg/kg/day; ED (T/C 150%) (Sarcoma 180): 0.02 mg/kg/day
Cc1c(N)nc(C(CC(N)=O)NCC(N)C(N)=O)nc1C(=O)NC(C(=O)NC(C)C(O)CC(=O)NC(C(=O)NC(OC1OC(C)C(N)C(O)C1O)C(O)c1nc(-c2nc(C(=O)NCCCC(N)CC(=O)NCCCNCCCCN)cs2)cs1)C(C)O)C(OC1OC(CO)C(O)C(O)C1OC1OC(CO)C(O)C(OC(N)=O)C1O)c1c[nH]cn1 (stereo not shown) [Tallysomycin A (Cu-free), reference compound] | – | – | 0.13 | – | – | – | – | – | – | – | – | – | 0.26 | – | 4.4 | 19 | – | – | – | – | ED (T/C 150%) (Sarcoma 180; [10]): 0.07 mg/kg/day
Cc1c(N)nc(C(CC(N)=O)NCC(N)C(N)=O)nc1C(=O)NC(C(=O)NC(C)C(O)CC(=O)NC(C(=O)NC(OC1OC(C)C(N)C(O)C1O)C(O)c1nc(-c2nc(C(=O)NCCC[S+](C)C)cs2)cs1)C(C)O)C(OC1OC(CO)C(O)C(O)C1OC1OC(CO)C(O)C(OC(N)=O)C1O)c1cnc[nH]1.Cl.Cl.Cl.[Cl-] (stereo not shown) [Tallysomycin S2b] | 300 μ/mg | 0.63 | 0.65 | 49 | 0.2 | < 0.05 | 1.6 | 25 | 6.3 | 0.4 | 0.8 | 1.6 | 0.91 | 35 | 2.0 | 32 | 0.12 | 267 | 0.33 | 97 | –
Cc1c(N)nc(C(CC(N)=O)NCC(N)C(N)=O)nc1C(=O)NC(C(=O)NC(C)C(O)CC(=O)NC(C(=O)NC(OC1OC(C)C(N)C(O)C1O)C(O)c1nc(-c2nc(C(=O)NCCCNCCCCN)cs2)cs1)C(C)O)C(OC1OC(CO)C(O)C(O)C1OC1OC(CO)C(O)C(OC(N)=O)C1O)c1c[nH]cn1 (stereo not shown) [Tallysomycin B (Cu-free), reference compound] | – | – | 0.11 | – | – | – | – | – | – | – | – | – | 0.89 | – | 6.8 | 46 | – | – | – | – | ED (T/C 150%) (Sarcoma 180; [10]): 0.06 mg/kg/day
